Measurements taken from publication PMC2533354, “Highly specific inhibition of leukaemia virus membrane fusion by interaction of peptide antagonists with a conserved region of the coiled coil of envelope” (Retrovirology, 2008).
Where a SMILES comes first, the peptide text is derived from it.

Columns and labels:
[1] = system: virally expressed BLV envelope (BLV-infected FLK cells); conditions: chronically BLV infected FLK effector cells + HeLa target cells; result in words (Figure 3C)
Method: (§1) Briefly, HeLa cells for use as effector cells were transfected with the envelope expression vector pHTE-1 or with equal amounts of pCMV-BLVenv-RRE and pRSV-Rev using the Genejuice™ transfection reagent (Novagen) in accordance with the manufacturer's instructions. 24 h later, 3 × 10^5 effector cells were added to 7 × 10^5 untransfected HeLa target cells in six-well dishes (Nunc). Where appropriate, the co-culture was incubated in the presence of peptides at the concentrations specified. To assess the ability of the peptides to inhibit fusion induced by virally expressed BLV envelope, 2 × 10^5 BLV-infected FLK cells were used as effectors and added to 8 × 10^5 uninfected HeLa cells. After incubation at 37°C for 16 h, cells were washed twice with PBS and fixed in PBS + 3% paraformaldehyde. Assays were performed in triplicate and the number of syncytia (defined as multinucleated cells with 4 or more nuclei) from 10 low-power fields (LPF) per replicate was scored by light microscopy; some assays were stained using Giemsa. A syncytium formation value of 100% is defined as the number of syncytia formed in the absence of peptide but in the presence of 1.5% DMSO.

[2] = Relative peptide solubility by laser nephelometry; format: physicochemical; conditions: filtered PBS with 1.5 % DMSO, maximum solubility in aqueous solution, two-fold serial dilution from DMSO stock, 200 μl, 1 hr at room temperature, laser nephelometry (forward scattered light, NEPHELOstar), duplicate wells, in solution if reading up to 3-fold the DMSO control
Method: A two-fold serial dilution of peptide in DMSO was performed, and added in duplicate to 96-well microplates. Filtered PBS was added to give a total volume of 200 μl and a final DMSO concentration of 1.5 % in all wells. The plates were incubated at room temperature for 1 hr and the relative solubility of peptides was established by measuring forward scattered light using a NEPHELOstar laser-based microplate nephelometer (BMG LABTECH). Wells containing PBS and 1.5 % DMSO only were used as blanks. Data analysis was carried out using ActivityBase, and peptides giving readings up to and including 3-fold higher than the average reading for the DMSO control were considered to be in solution at the concentrations specified.

HTLV-1 envelope = target: T1, HTLV-1 envelope (Human T-cell leukemia virus 1, UniProt P03381); experiment: Syncytium interference assay, HTLV-1 envelope-expressing HeLa effector cells; format: cell-based; conditions: concentrations up to 20 μM and above; result in words
T1 construct: expressed in transfected cells; host or cells: HeLa
Method: as §1

BLV envelope = target: T2, BLV envelope (Bovine leukemia virus, UniProt P51519); experiment: Syncytium interference assay, BLV envelope-expressing HeLa effector cells; format: cell-based
T2 construct: A fragment encompassing the entire BLV envelope open reading frame; expressed in transfected cells; host or cells: HeLa (co-transfected with pRSV-Rev)
T2 sequence (P51519 302-515): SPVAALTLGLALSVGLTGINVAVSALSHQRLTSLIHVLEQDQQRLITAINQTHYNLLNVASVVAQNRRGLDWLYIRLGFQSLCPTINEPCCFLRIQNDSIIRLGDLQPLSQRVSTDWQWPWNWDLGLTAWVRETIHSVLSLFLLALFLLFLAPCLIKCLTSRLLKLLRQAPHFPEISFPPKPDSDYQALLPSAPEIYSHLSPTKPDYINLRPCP
Method: as §1

T1 sequence (P03381 313-488): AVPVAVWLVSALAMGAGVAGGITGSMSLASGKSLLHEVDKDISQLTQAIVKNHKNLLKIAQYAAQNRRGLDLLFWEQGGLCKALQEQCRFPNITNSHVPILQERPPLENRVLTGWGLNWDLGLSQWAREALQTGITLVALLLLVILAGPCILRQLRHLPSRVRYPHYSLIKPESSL

Structure (SMILES)	Inhibition of membrane fusion induced by virally expressed BLV envelope [1]	solubility kinetic at 1 h [2]	Inhibition of membrane fusion induced by HTLV-1 envelope (HTLV-1 envelope)	Block of syncytium formation (BLV envelope; peptide at 20 μM, BLV envelope-expressing HeLa effectors (Figure 4B))	Inhibition of membrane fusion induced by BLV envelope (BLV envelope; concentrations up to 15 μM and above, result in words)
CC[C@H](C)[C@H](NC(=O)[C@H](CCCNC(=N)N)NC(=O)[C@H](CC(C)C)NC(=O)[C@H](Cc1ccccc1)NC(=O)[C@H](CS)NC(=O)[C@H](CS)NC(C)=O)C(=O)N[C@@H](CCC(N)=O)C(=O)N[C@@H](CC(N)=O)C(=O)N[C@@H](CC(=O)O)C(=O)N[C@@H](CO)C(=O)N[C@H](C(=O)N[C@H](C(=O)N[C@@H](CCCNC(=N)N)C(=O)N[C@@H](CC(C)C)C(=O)NCC(=O)N[C@@H](CC(=O)O)C(=O)N[C@@H](CC(C)C)C(=O)N[C@@H](CCC(N)=O)C(=O)N1CCC[C@H]1C(=O)N[C@@H](CC(C)C)C(=O)N[C@@H](CO)C(=O)N[C@@H](CCC(N)=O)C(=O)N[C@@H](CCCNC(=N)N)C(=O)N[C@H](C(=O)N[C@@H](CO)C(=O)N[C@H](C(=O)N[C@@H](CC(=O)O)C(=O)N[C@@H](Cc1c[nH]c2ccccc12)C(=O)N[C@@H](CCC(N)=O)C(N)=O)[C@@H](C)O)C(C)C)[C@@H](C)CC)[C@@H](C)CC [P^BLV-391] (Ac-CCFLRIQNDSIIRLGDLQPLSQRVSTDWQ-NH2)	robustly antagonized	> 90 µM	failed to inhibit	> 95%	–
CC[C@H](C)[C@H](NC(=O)[C@H](CO)NC(=O)[C@@H](NC(=O)[C@H](Cc1c[nH]cn1)NC(=O)[C@H](CO)NC(=O)[C@H](CC(N)=O)NC(=O)[C@@H](NC(=O)[C@@H](NC(=O)[C@H](CC(N)=O)NC(=O)[C@H](CC(C)C)NC(=O)[C@H](Cc1ccccc1)NC(=O)[C@H](CS)NC(=O)[C@H](CS)NC(C)=O)[C@@H](C)CC)[C@@H](C)O)C(C)C)C(=O)N[C@@H](CC(C)C)C(=O)N[C@@H](CCC(N)=O)C(=O)N[C@@H](CCC(=O)O)C(=O)N[C@@H](CCCNC(=N)N)C(=O)N1CCC[C@H]1C(=O)N1CCC[C@H]1C(=O)N[C@@H](CC(C)C)C(=O)N[C@@H](CCC(=O)O)C(=O)N[C@@H](CC(N)=O)C(=O)N[C@@H](CCCNC(=N)N)C(=O)N[C@H](C(=O)N[C@@H](CC(C)C)C(=O)N[C@H](C(=O)NCC(=O)N[C@@H](Cc1c[nH]c2ccccc12)C(=O)NCC(=O)N[C@@H](CC(C)C)C(N)=O)[C@@H](C)O)C(C)C [P^cr-400, reference compound] (Ac-CCFLNITNSHVSILQERPPLENRVLTGWGL-NH2)	did not block	> 90 µM	–	–	failed to inhibit
